Source: patent publication US20240334941A1, “HIGH-EFFICACY NATURAL PRESERVATIVES” (BioVeritas, LLC, priority 2023, published 2024)

Tests used:
mold [1] = test: Comparative shelf-life study using pup loaves (white bread), days until visible mold
Experimental: Example 2. A comparative shelf-life study was performed using pup loaves by an ISO/IEC 17025:2017 certified laboratory, Great Plains Analytical Laboratory, Kansas City, MO, USA. A standard white bread dough formulation was prepared (pup loaves) for each test group. Approximately 500 grams of dry material was used to prepare 3 pup loaves per test group. Various preservatives, which were to act as mold inhibitors, were added to the doughs. The amount of preservatives added to each dough is reported as a weight percentage based on the mass of flour in the dough (“on flour”). Each mold inhibitor was thoroughly mixed into the formulation for each dough. The percentage inclusion and type of mold inhibitor on flour is outlined in Table 2. Three of the mold inhibitors were made with acetic and propionic acid produced from fermentation using a mixed consortium of naturally occurring microorganisms or microbiome using the methods previously described herein. […] The second and third comparative mold inhibitors were high-efficacy clean-label acetate/propionate mold inhibitors, with one having an acetate/propionate weight ratio of 1:1 (50 wt. % acetate/50 wt. % propionate) (BV1) and the other one having an acetate/propionate weight ratio of 1:6 (14 wt. % acetate/86 wt. % propionate) (BV2). […] The internal temperature of each loaf was recorded upon exiting the oven and prior to packaging (Table 3). In addition, water activity and pH were measured in one of the replicates for each group prior to baking using a water activity meter and a pH meter (Table 4). The product odor (similar to baseline or off odor development), color, and general appearance were evaluated daily. […]
Three sample loaves were produced using each of the inhibitor treatments, and the number of days until mold was observed was recorded for each loaf. […] No off-odors were detected over time in any of the treatments.

mold [2] = test: Comparative shelf-life study using flour tortillas, days until visible mold
Experimental: Example 3. A comparative shelf-life study using flour tortillas was performed by an ISO/IEC 17025:2017 certified laboratory, Great Plains Analytical Laboratory, Kansas City, MO. The purpose of this study was to compare the efficacy of preservatives, which were to act as mold inhibitors, in a tortilla formulation. A total of 10 test groups of tortillas were prepared: 9 test groups contained various mold inhibitors and one test group served as control, without a mold inhibitor (no additive). Test groups were stored at ambient temperature for 30 days to determine the overall efficacy of the inhibitors and compare the performance of the inhibitors in the tortilla formulation. […]
After mixing the tortilla formulation ingredients with the corresponding mold inhibitor, samples of rounded dough were placed onto parchment paper and allowed to ferment for 20 minutes at 82±2° F. and 85% relative humidity. […] Water activity was measured using a water activity meter. […] The product odor (similar to baseline or off odor development), color, and general appearance were evaluated daily. […]
The results for the tortilla shelf-life study comparing the preservative/mold inhibitors treatments are graphically shown in FIG. 2. Three tortilla samples were produced using each of the inhibitor treatments, and the number of days until mold was observed was recorded for each sample. […]

[3] = Water activity and pH of bread dough prior to baking; assay type: physicochemical
Experimental: Example 2. A comparative shelf-life study was performed using pup loaves by an ISO/IEC 17025:2017 certified laboratory, Great Plains Analytical Laboratory, Kansas City, MO, USA. A standard white bread dough formulation was prepared (pup loaves) for each test group. Approximately 500 grams of dry material was used to prepare 3 pup loaves per test group. Various preservatives, which were to act as mold inhibitors, were added to the doughs. The amount of preservatives added to each dough is reported as a weight percentage based on the mass of flour in the dough (“on flour”). Each mold inhibitor was thoroughly mixed into the formulation for each dough. The percentage inclusion and type of mold inhibitor on flour is outlined in Table 2. Three of the mold inhibitors were made with acetic and propionic acid produced from fermentation using a mixed consortium of naturally occurring microorganisms or microbiome using the methods previously described herein. […] The second and third comparative mold inhibitors were high-efficacy clean-label acetate/propionate mold inhibitors, with one having an acetate/propionate weight ratio of 1:1 (50 wt. % acetate/50 wt. % propionate) (BV1) and the other one having an acetate/propionate weight ratio of 1:6 (14 wt. % acetate/86 wt. % propionate) (BV2). […] After mixing, the dough was divided into disposable bread pans and allowed to ferment for 3 hours at 86±1° F. and 60% relative humidity, proofed for 55 minutes at 109±1° F. and 90% humidity, and baked for 15 minutes at 425±1° F. This procedure was repeated for each test group for a total of 30 loaves of bread. The internal temperature of each loaf was recorded upon exiting the oven and prior to packaging (Table 3). In addition, water activity and pH were measured in one of the replicates for each group prior to baking using a water activity meter and a pH meter (Table 4). The product odor (similar to baseline or off odor development), color, and general appearance were evaluated daily. Each sample was opened and closed daily until visible mold appeared.

[4] = Water activity and pH of tortilla dough prior to baking; assay type: physicochemical
Experimental: After mixing the tortilla formulation ingredients with the corresponding mold inhibitor, samples of rounded dough were placed onto parchment paper and allowed to ferment for 20 minutes at 82±2° F. and 85% relative humidity. The dough was then pressed into a tortilla form, cooked, cooled, and packaged. This procedure was repeated for each test group. One replicate of dough for each group was tested prior to baking. Water activity was measured using a water activity meter. Measurements for pH were made using a pH meter. The product odor (similar to baseline or off odor development), color, and general appearance were evaluated daily. Each sample was opened and closed daily, until visible mold appeared.

mold [5] = test: Shelf-life study using pup loaves (Example 6), day of visible mold; conditions: ambient temperature
Experimental: Example 6. In another example, a comparative shelf-life and sensory study using pup loaves was performed by an ISO/IEC 17025:2017 certified laboratory, Great Plains Analytical Laboratory, Kansas City, MO. A total of seven test groups of white bread in a pup loaf formulation were prepared. […] Test groups were stored at ambient temperature for between 7 and 15 days to determine the overall efficacy of the inhibitors and compare the performance of the inhibitors in the bread formulation. Sensory analysis was performed examining the flavor and crumb texture for all samples. The studies were conducted concurrently.
A standard white bread dough formulation was prepared for each test group. Three pup loaves were prepared for each test group for the visual examination portion of the study. […] The bread was baked for 15 minutes at 425±1° F. Internal temperatures were recorded upon exiting the oven and prior to packaging. […]
Chemical testing included the evaluation of pH on the dough out of the mixer (Table 15). […] A bake score, height, and volume were recorded for each test group. […] The pup loaves were evaluated for visible mold every day for the shelf-life portion of the study. A photograph of the visible mold was taken the day it was detected. The sensory analysis consisted of a quantitative descriptive analysis and a ranking performed by a trained panel. […]

[6] = Dough pH out of the mixer (Example 6); assay type: physicochemical
Experimental: Chemical testing included the evaluation of pH on the dough out of the mixer (Table 15). Measurement for pH was made using a pH meter. A bake score, height, and volume were recorded for each test group. The bake score examined the crust color, loaf symmetry, uniformity of the break and shred, crumb texture, crumb grain, crumb color, taste, and aroma. The pup loaves were evaluated for visible mold every day for the shelf-life portion of the study. A photograph of the visible mold was taken the day it was detected. The sensory analysis consisted of a quantitative descriptive analysis and a ranking performed by a trained panel. […] The descriptive analysis covered the crumb texture and flavor of the test groups. The sensory analysis was performed on Days 3, 6, 9, 12, and 15. No sensory analysis was performed on bread that had visible mold.
The temperature of the loaves out of the oven and prior to packaging were recorded in Table 14. Dough was removed from the mixing bowl and then analyzed for pH.

[7] = 0.3 wt. % on flour (order of Table 2)
[8] = 1 wt. % on flour (order of Table 2)

Compound	mold after day 30 up to day 45 (mold [1]; 1 wt. % on flour, bags no longer opened each day)	day visible mold developed (replicate loaves) (mold [1]; 1 wt. % on flour, stored 70-73 F, opened daily, 30-day study) [days]	days on which visible mold developed (replicates) (mold [2]; 1 wt. % on flour, 68-73 F, opened daily) [days]	mold after day 30 up to day 45 (mold [2]; 1 wt. %, remaining replicate, bags no longer opened) [days]	Water Activity [3, 7]	pH [3, 7]	Water Activity [3, 8]	pH [3, 8]	Water Activity [4, 7]	pH [4, 7]	Water Activity [4, 8]	pH [4, 8]	mold inhibitor performance (mold [1]; 0.3 wt. % on flour)	Day of Visible Mold (mold [5]; 0.5 wt. %) [days]	Day of Visible Mold (mold [5]; 0.8 wt. %) [days]	Dough pH ([6]; 0.5 wt. % mold inhibitor)	Dough pH ([6]; 0.8 wt. % mold inhibitor)
CCC(=O)[O-].CCC(=O)[O-].[Ca+2] [BV CP, calcium propionate]	no signs of mold growth or off odor at day 45	> 30	30	> 45	0.9535	5.65	0.9448	5.73	0.9548	6.98	0.9612	6.87					
CCC(=O)[O-].CCC(=O)[O-].[Ca+2] [CCP, calcium propionate, reference compound]					0.9564	5.40			0.9502	6.7			performed similar to the natural calcium propionate (BV CP)	7	9	5.34	5.53
